For experiment [1], the system named is chick embryo heart cells. The experiment in a line: Effect on proliferation of chick embryo heart cells (Experiments 1 and 2). Type of experiment: cell-based. The conditions noted are these: for Cell number + S.E. / activity at 50 µg/mL: Experiment 1, 50 μg/ml; for Cell number + S.E.: 3 days incubation; for activity at 50 µg/mL / activity at 20 µg/mL: Gallus gallus, control = 100.0; for activity at 50 µg/mL: 72 h, read-out: Growth rate %; for Cell number ± S.E. / activity at 20 µg/mL: Experiment 2, 20 μg/ml; for Cell number ± S.E.: 1 day with compound after 3 days of incubation; for activity at 20 µg/mL: 24 h, read-out: Growth rate (%). As for the experimental part: A. Effect of S-inosylcysteine on proliferation of chick embryo heart cells.
(§1) Method: The hearts excised from 13-day-old chick embryos were cut into pieces 1 to 2 mm in diameter under sterile conditions. After washing with calcium and magnesium-free phosphate buffered saline (PBS), the pieces of hearts were treated with a solution of 0.1% trypsin in PBS freed from calcium and magnesium ions, and the supernatant fraction was discarded. The residue was treated with a solution of 0.1% trypsin in PBS freed from calcium and magnesium ions, and the supernatant fractions containing isolated cells were collected. The procedure was repeated 3 times. The supernatant fractions were combined and diluted with cold culture medium containing 10% fetal calf serum, sodium penicillin G (100 units per ml) and sulfate streptomycin (1 μg per ml), and centrifuged at 150 xG. The resulting pellet was washed twice with the culture medium and diluted cautiously with the same culture medium to give a suspension which contains 200,000 cells per ml. One ml of the suspension was poured into each of 28 culture tubes which were equally divided into 7 groups. The cells were cultured at 37° C in an incubator. After 1 day of incubation the culture medium of the tubes was removed and 1 ml of each culture medium containing compound shown in Table I was added thereto. After additional 3 days of incubation the culture medium was removed and the cells were then treated with 1 ml of 0.1 M citric acid containing 0.1% crystal violet. The number of cells was counted with a hemocytometer in quadruplicate after vigorous shaking.
(§2) Method: The culture procedure for chick embryo heart cells was employed as described in Experiment 1. After 3 days of incubation, the culture medium was removed and 1 ml of each culture medium containing compounds shown in Table II was added thereto. After an additional 1 day of incubation the number of cells was counted.

Experiment [2] deals with chick embryo heart cells. The experiment in a line: Effect on proliferation of chick embryo heart cells in the presence of a growth inhibitor, KCN (Experiments 3 and 4). In kind it is cell-based. The conditions noted are these: for activity at 50 µg/mL / activity at 20 µg/mL: Gallus gallus; for activity at 20 µg/mL: 24 h. The protocol:
as §1, with “After” for “Method: The hearts excised from 13-day-old chick embryos were cut into pieces 1 to 2 mm in diameter under sterile conditions. After”, “The resulting pellet was washed twice with the culture medium and diluted cautiously with the same culture medium to give a suspension which contains 200,000 cells per ml.” left out, “shaking. […] After 3 days of incubation, the culture medium was removed and 1 ml of each culture medium containing compounds shown in Table II was added thereto. After an additional 1 day of incubation the number of cells was counted. […] Method: The culture procedure for chick embryo heart cells was employed as described in Experiment 1. After one day of incubation, the culture medium was removed and 1 ml of each culture medium containing KCN (1.7 μg per ml) and compounds shown in Table III were added thereto.” for “shaking.”

Experiment [3] relates to pylorus ligation ulcer. The experiment in a line: Effect on pylorus ligation ulcer in rats (Experiments 6 and 7). To be noted: Experiment 6, 50 mg/kg, p.o.; for Mean ulcer index ± S.E.: 10 hours from ligation. Type of experiment: in vivo, Male Wister rats. The protocol:
a. Effect of S-inosylcysteine on pylorus ligation ulcer.
Method: Male Wister rats (Keari Gifu-Lab.), aged 7 weeks were used. After fasting for 48 hours, rats weighing 210 to 230 g were divided into 6 groups of 10 rats. The pylorus of stomach was ligated under light anesthesia with pentobarbital sodium (25 mg per kg, i.p.). Immediately after the ligation, a psysiological saline was orally administered to one group and a solution of each tested compound (50 mg per kg) was orally administered to the remaining 5 groups. After these rats were kept without food and water for 10 hours from the ligation, the stomach was removed under anesthesia with pentobarbital sodium (30 mg per kg, i.p.). The gastric contents were aspirated and the stomach was fixed by means of the injection of 10 ml of a 2% formalin solution into the lumen. The stomach was opened along its greater curvature. The severity of the lesion of the rumen, that is, the degree of ulcer was expressed as ulcer index according to the method of Yokotani (Folia pharmacol. Japon. 56, 1373, (1960). The results are shown in Table VI.
*Inhibition rate was calculated as follows: […]
Method: The same method as described in Experiment 6 was employed. The
effect of S-inosyl-L-cysteine
on pylorus ligation ulcer was examined with intramuscular administration.

Experiment [4] has as its system chick embryo heart cells. In words: Effect on proliferation of chick embryo heart cells in the presence of 6-mercaptopurine (Experiment 5). In kind it is cell-based. The conditions noted are these: Experiment 5, 20 μg/ml, 6-mercaptopurine 5 μg per ml; for activity at 20 µg/mL: Gallus gallus, 24 h. The protocol:
as §1, §2
Method: Same as in Experiment 2 except that 6-mercaptopurine (5 μg per
ml) was added to each culture

The mark [5] stands for this setting: Experiment 3, 50 μg/ml, KCN 1.7 μg per ml.
[6] abbreviates: its control = 100.0, read-out: Growth Rate (%).
Where [7] appears, read: simultaneous with Experiment 2, read-out: Growth rate (%) with respect to control of Table II.
Where [8] appears, read: Experiment 4, 20 μg/ml, KCN 1.7 μg per ml.
[9] abbreviates: Experiment 4, 20 μg/ml, KCN 1.7 μg per ml, KCN control = 100.0, read-out: Growth rate (%).
[10] abbreviates: Experiment 4, 20 μg/ml, KCN 1.7 μg per ml, simultaneous with Experiment 2, read-out: Growth rate (%) with respect to control of Table II.
[11] abbreviates: Experiment 3, 50 μg/ml, KCN 1.7 μg per ml, KCN control = 100.0, read-out: Growth Rate %.
Where [12] appears, read: Experiment 3, 50 μg/ml, KCN 1.7 μg per ml, simultaneous with Experiment 1, read-out: Growth rate (%) with respect to control of Table I.

In the case of `Nc1ncnc2c1ncn2[C@@H]1O[C@H](CO)[C@@H](O)[C@H]1O` [adenosine], the “Cell number + S.E.” value in experiment [1] is 44.1 ± 5.6 ×10^4 cells. In addition, the activity at 50 µg/mL in experiment [1] was 86.6%; in experiment [2] (read-out: Growth Rate %), 104%; in experiment [2] (read-out: Growth rate (%) with respect to control of Table I), 65.4%. Moreover, the “Cell number ± S.E.” value in experiment [2] (setting [5]) was 33.3 ± 1.9 ×10^4 cells.
As for `Nc1ncnc2c1ncn2[C@@H]1O[C@H](CSCC[C@H](N)C(=O)O)[C@@H](O)[C@H]1O` [S-adenosyl-L-homocysteine], the “Inhibition rate (%) of ulcer” value in experiment [3] was 19%. Moreover, the “Mean ulcer index ± S.E.” value in experiment [3] came to 11.3 ± 0.7. For the same molecule, the “Cell number ± S.E.” value in experiment [4] is reported as 75.7 ± 1.6 ×10^4 cells; in experiment [1] it was 71.5 ± 3.4 ×10^4 cells; in experiment [2] (setting [8]), 65.2 ± 1.8 ×10^4 cells. Also, the activity at 20 µg/mL came out at 111% in experiment [4] (setting [6]); 92.8% in experiment [4] (setting [7]); 87.6% in experiment [1]; 99.1% in experiment [2] (setting [9]); 79.9% in experiment [2] (setting [10]).
On to `Nc1nc2c(ncn2[C@@H]2O[C@H](CSCC[C@H](N)C(=O)O)[C@@H](O)[C@H]2O)c(=O)[nH]1` [S-guanosyl-L-homocysteine], for which the “Inhibition rate (%) of ulcer” value in experiment [3] is -8%. Besides, in experiment [3], the “Mean ulcer index ± S.E.” value was found to be 15.0 ± 1.8. Further, the “Cell number ± S.E.” value is listed as 72.3 ± 5.5 ×10^4 cells in experiment [4], 69.2 ± 1.8 ×10^4 cells in experiment [1] and 66.3 ± 1.4 ×10^4 cells in experiment [2] (setting [8]). In addition, the activity at 20 µg/mL was 106% in experiment [4] (setting [6]); 88.6% in experiment [4] (setting [7]); 84.8% in experiment [1]; 101% in experiment [2] (setting [9]); 81.3% in experiment [2] (setting [10]).
As for `OC[C@H]1O[C@@H](n2cnc3c(O)ncnc32)[C@H](O)[C@@H]1O` [inosine], in experiment [1], the “Cell number + S.E.” value is given as 54.1 ± 2.0 ×10^4 cells. Further, the activity at 50 µg/mL came out at 106% in experiment [1], 116% in experiment [2] (setting [11]) and 73.1% in experiment [2] (setting [12]). In addition, the “Cell number ± S.E.” value in experiment [2] (setting [5]) was 37.2 ± 4.4 ×10^4 cells.
As for `N[C@@H](CCSC[C@H]1O[C@@H](n2cnc3c(=O)[nH]cnc32)[C@H](O)[C@@H]1O)C(=O)O` [S-inosyl-L-homocysteine], the “Inhibition rate (%) of ulcer” value in experiment [3] is recorded as 12%. For the same molecule, the “Mean ulcer index ± S.E.” value in experiment [3] came to 12.3 ± 1.1. In addition, the entries for the “Cell number ± S.E.” value in experiment [4], in experiment [1] and in experiment [2] (setting [8]) were 65.3 ± 3.7 ×10^4 cells, 78.2 ± 7.5 ×10^4 cells and 73.5 ± 1.7 ×10^4 cells, respectively. Also, the activity at 20 µg/mL in experiment [4] (setting [6]) came out at 95.6%; in experiment [4] (setting [7]) it was 80%; in experiment [1], 95.8%; in experiment [2] (setting [9]) it was 112%; in experiment [2] (setting [10]), 90.1%.
On to `N[C@@H](CS)C(=O)O` [L-cysteine], for which the “Cell number + S.E.” value in experiment [1] was 50.5 ± 1.3 ×10^4 cells. The activity at 50 µg/mL is 99.2% in experiment [1], 131% in experiment [2] (setting [11]) and 82.3% in experiment [2] (setting [12]). In addition, the “Cell number ± S.E.” value in experiment [2] (setting [5]) is on record as 41.9 ± 6.3 ×10^4 cells.
Consider `Nc1ncnc2c1ncn2[C@@H]1O[C@H](CSC[C@H](N)C(=O)O)[C@@H](O)[C@H]1O` [S-adenosyl-L-cysteine], for which, in experiment [3], the “Inhibition rate (%) of ulcer” value is 13%. The “Mean ulcer index ± S.E.” value in experiment [3] was 12.1 ± 1.2. Further, the entries for the “Cell number ± S.E.” value in experiment [4], in experiment [1] and in experiment [2] (setting [8]) were 70.7 ± 1.2 ×10^4 cells, 74.8 ± 4.7 ×10^4 cells and 64.2 ± 3.0 ×10^4 cells, respectively. For the same molecule, the activity at 20 µg/mL stood at 104% in experiment [4] (setting [6]); 86.6% in experiment [4] (setting [7]); 91.7% in experiment [1]; 97.6% in experiment [2] (setting [9]); 78.7% in experiment [2] (setting [10]).

For the origin of these results see patent US4011221A, “S-Inosylcysteine and a process for producing the same” (Funai Pharmaceutical Industries, Ltd., priority 1974, dated 1977).
